Measured values published in ChEMBL document CHEMBL1201862, “PubChem BioAssay data set” (2004).
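Cultured in 96-well plates, cells were exposed to test compound for 48 hours across five concentrations. GI50 is the concentration that inhibits growth by half.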 Active and inactive are the calls of the source. Cut-off read from the data, not from the text of the source: active = GI50 up to about 1.1 µM and inactive = higher.

What was measured:
Assay in all cases: growth of human tumour cells (NCI), 48 h
IGROV-1 = test system: IGROV-1
KM12 = test system: KM12
BT-549 = test system: BT-549
M14 = test system: M14
SNB-19 = test system: SNB-19
CCRF-CEM = test system: CCRF-CEM
SN12C = test system: SN12C
OVCAR-3 = test system: OVCAR-3
SK-MEL-2 = test system: SK-MEL-2
CAKI-1 = test system: CAKI-1
SK-OV-3 = test system: SK-OV-3
PC-3 = test system: PC-3
SF-295 = test system: SF-295
TK-10 = test system: TK-10
SF-268 = test system: SF-268
Hs-578T = test system: Hs-578T
HOP-62 = test system: HOP-62
A498 = test system: A498

| Compound | GI50 (IGROV-1) | GI50 (KM12) | GI50 (BT-549) | GI50 (M14) | GI50 (SNB-19) | GI50 (CCRF-CEM) | GI50 (SN12C) | GI50 (OVCAR-3) | GI50 (SK-MEL-2) | GI50 (CAKI-1) | GI50 (SK-OV-3) | GI50 (PC-3) | GI50 (SF-295) | GI50 (TK-10) | GI50 (SF-268) | GI50 (Hs-578T) | GI50 (HOP-62) | GI50 (A498) |
| --- | --- | --- | --- | --- | --- | --- | --- | --- | --- | --- | --- | --- | --- | --- | --- | --- | --- | --- |
| COc1cc(C2SCC(=O)N2Cc2ccccc2)cc(OC)c1OC (stereo not given) | 84.3 µM (inactive) | > 100 µM (inactive) | > 100 µM (inactive) | > 100 µM (inactive) | > 100 µM (inactive) | > 100 µM (inactive) | > 100 µM (inactive) | > 100 µM (inactive) | > 100 µM (inactive) | > 100 µM (inactive) | > 100 µM (inactive) | > 100 µM (inactive) | > 100 µM (inactive) | > 100 µM (inactive) | > 100 µM (inactive) | > 100 µM (inactive) | – | – |
| COc1cc2cc(C(=O)N3CC(COS(C)(=O)=O)c4ccc(O)cc43)[nH]c2c(OC)c1OC (stereo not given) | 0.000158 µM (active) | 0.000169 µM (active) | – | < 0.0001 µM (active) | < 0.0001 µM (active) | < 0.01 µM (active) | < 0.0001 µM (active) | < 0.0001 µM (active) | < 0.0001 µM (active) | – | – | – | < 0.0001 µM (active) | 0.000301 µM (active) | < 0.0001 µM (active) | 0.000168 µM (active) | < 0.0001 µM (active) | < 0.01 µM (active) |
| S=C1CC(c2ccc(Cl)cc2)Sc2ccccc2N1 (stereo not given) | 43.4 µM (inactive) | 45.7 µM (inactive) | 21.1 µM (inactive) | 24.3 µM (inactive) | 27.8 µM (inactive) | 51.9 µM (inactive) | 78.5 µM (inactive) | 23.1 µM (inactive) | – | 41.4 µM (inactive) | 22.5 µM (inactive) | 24.2 µM (inactive) | > 100 µM (inactive) | 46.7 µM (inactive) | 24.7 µM (inactive) | 11.9 µM (inactive) | 16.4 µM (inactive) | – |
| CCOC(=O)CON=c1c2ccccc2ccc2ccccc12 | > 100 µM (inactive) | > 100 µM (inactive) | > 100 µM (inactive) | > 100 µM (inactive) | > 100 µM (inactive) | > 100 µM (inactive) | > 100 µM (inactive) | > 100 µM (inactive) | > 100 µM (inactive) | > 100 µM (inactive) | > 100 µM (inactive) | > 100 µM (inactive) | > 100 µM (inactive) | > 100 µM (inactive) | > 100 µM (inactive) | > 100 µM (inactive) | > 100 µM (inactive) | – |
| NC(=O)C(=CN1CC(=O)NC1=S)C(N)=O | > 100 µM (inactive) | > 100 µM (inactive) | > 100 µM (inactive) | > 100 µM (inactive) | > 100 µM (inactive) | – | > 100 µM (inactive) | > 100 µM (inactive) | > 100 µM (inactive) | > 100 µM (inactive) | > 100 µM (inactive) | – | > 100 µM (inactive) | > 100 µM (inactive) | > 100 µM (inactive) | – | > 100 µM (inactive) | > 100 µM (inactive) |
| COc1c(C)c(C/C=C(\C)CC/C=C(\C)CC/C=C(\C)CCC=C(C)C)c(OC)c2ccccc12 | 37.2 µM (inactive) | > 100 µM (inactive) | > 100 µM (inactive) | > 100 µM (inactive) | > 100 µM (inactive) | 28.5 µM (inactive) | > 100 µM (inactive) | > 100 µM (inactive) | > 100 µM (inactive) | > 100 µM (inactive) | > 100 µM (inactive) | > 100 µM (inactive) | > 100 µM (inactive) | > 100 µM (inactive) | > 100 µM (inactive) | > 100 µM (inactive) | > 100 µM (inactive) | – |
| CCCCCCCCCCCCCCCCP(=O)(O)OCC(N)C(=O)O (stereo not given) | 14.1 µM (inactive) | 20.3 µM (inactive) | – | 50.2 µM (inactive) | 16.9 µM (inactive) | 33.5 µM (inactive) | 41.5 µM (inactive) | 23.6 µM (inactive) | 26.4 µM (inactive) | 19.1 µM (inactive) | 56.1 µM (inactive) | 14.9 µM (inactive) | 20.7 µM (inactive) | – | 27.7 µM (inactive) | 54 µM (inactive) | 23.4 µM (inactive) | 23.6 µM (inactive) |
| CCOC(=O)CCCn1cc(C(=O)OC)nn1 | > 100 µM (inactive) | > 100 µM (inactive) | > 100 µM (inactive) | – | > 100 µM (inactive) | > 100 µM (inactive) | > 100 µM (inactive) | – | > 100 µM (inactive) | > 100 µM (inactive) | – | > 100 µM (inactive) | 46.5 µM (inactive) | > 100 µM (inactive) | > 100 µM (inactive) | > 100 µM (inactive) | > 100 µM (inactive) | – |
